According to patent US20250092044A1, “Kinase Inhibitors” (Incyte Corporation, priority 2023, published 2025):
Like-named read-outs stand apart in the source and are kept apart here.

Columns and labels:
[1] = biological target: pseudo-kinase domain (JH2) of human V617F mutant JAK2 (Homo sapiens (Human), UniProt O60674, F794H/V617F/W659A/W777A); experiment: JAK2 LanthaScreen JH2-V617F Binding Assay; details: read-out: JH2 V617F Bind IC50
Procedure, shortened: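 Biotinylated His-Avi JAK2 JH2 (aa 536-812, V617F plus W659A/W777A/F794H; 0.26 nM) incubated 1 h at 25 °C with compound, 50 nM fluorescent JH2 tracer and 0.25 nM streptavidin-Tb in Tris pH 7.5 buffer. TR-FRET tracer displacement read; nonspecific binding with 2 mM ATP; IC50 from four-parameter fit.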

[2] = test system: STAT5 (Tyr694) phosphorylation in SET-2 cells; experiment: STAT5 (Tyr694) Phosphorylation Cell Based Assay; details: Homo sapiens, 2 hours, read-out: SET2 IC50
Procedure, shortened: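 SET-2 cells in RPMI with 10% FBS were exposed to compound for 2 h at 37 °C (0.5% DMSO final). After lysis, phospho-STAT5 (Tyr694) was read by HTRF (665/620 ratio) after 24 h antibody incubation at room temperature. IC50 was fitted from percent control activity versus log concentration.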

FaSSIF Solubility Assay = format: physicochemical; details: FaSSIF (fasted state simulated intestinal fluid), 25 °C, pH 6.5, fassif, thermodynamic from solid, FaSSIF pH=6.5, 25° C.
From the text: The FaSSIF (Fasted State Simulated Intestinal Fluid) solubility assay can predict how an oral drug is likely to be dissolved and potentially absorbed in the upper intestine after drinking a glass of water. FaSSIF solubility assay utilizes biorelevant intestinal media (Biorelevant, Part #FFF01) comprised of physiological surfactants, bile salts, and phospholipids that are present in the gastrointestinal fluids it mimics. FaSSIF (pH=6.5) has the average pH of a fasted intestinal fluid with similar osmolarity. The FaSSIF buffer was prepared by adding 20 mL of phosphate buffer to FaSSIF Powder. The buffer was then added to the dry compound of interest at a concentration of 1 mg/mL and then incubated at 25° C. for 24 hours in a Rototherm Plus (Part #H2024). After incubation, the Eppendorf tubes were centrifuged and run on an Agilent 1260 LC-MS. The LC-MS method is a 5 min gradient method of 2% to 95% acetonitrile with water (0.05% TFA) using a Sunfire C18, 5 um 2.1×50 mm (Part #186002539) column. A dry reference compound of interest was diluted to a known 1 mg/mL concentration in 1:1 of water and acetonitrile. Step-wise serial dilutions were performed and run on an Agilent 1260 LC-MS using the same conditions to make a standard curve. The area under the curve is reported for the compound of interest in FaSSIF buffer and the reference standards. Calculations were performed and the predicted solubility, μg/mL, was reported for compounds of the examples.

pseudo-kinase domain (JH2) of human V617F mutant JAK2, sequence (O60674 536-812 V617F/W659A/W777A/F794H): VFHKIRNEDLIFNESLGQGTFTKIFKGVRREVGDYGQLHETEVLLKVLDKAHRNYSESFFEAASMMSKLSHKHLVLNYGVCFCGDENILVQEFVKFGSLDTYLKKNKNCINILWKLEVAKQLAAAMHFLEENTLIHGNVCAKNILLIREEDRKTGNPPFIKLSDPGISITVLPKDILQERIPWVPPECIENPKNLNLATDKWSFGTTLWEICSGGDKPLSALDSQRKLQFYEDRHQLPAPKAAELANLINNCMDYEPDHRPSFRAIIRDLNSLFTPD

| SMILES | IC50 [1] | IC50 [2] | solubility at 24 h (FaSSIF Solubility Assay; read-out: Solubility Fassif) | solubility at 24 h (FaSSIF Solubility Assay; read-out: FaSSIF solubility) |
| --- | --- | --- | --- | --- |
| COC(=O)N[C@@H]1CC[C@@H](n2c(=O)n(C)c3cnc4[nH]c(-c5ccc(C(=O)NC6(C(F)(F)F)CC6)c(F)c5)c(-c5ccc6c(cnn6C(C)C)c5)c4c32)C1 [Example 13, Methyl ((1R,3R)-3-(7-(3-fluoro-4-((1-(trifluoromethyl)cyclopropyl)carbamoyl)phenyl)-8-(1-isopropyl-1H-indazol-5-yl)-3-methyl-2-oxo-3,6-dihydroimidazo[4,5-d]pyrrolo[2,3-b]pyridin-1(2H)-yl)cyclopentyl)carbamate] | ≤ 10 nM | 300 to 800 nM | – | – |
| COCCN(C)C(=O)c1ccc(-c2[nH]c3ncc4c(c3c2-c2ccc3c(cnn3C(C)C)c2)n([C@@H]2CC[C@@H](NC(=O)OC)C2)c(=O)n4C)cc1F [Example 15, Methyl ((1R,3R)-3-(7-(3-fluoro-4-((2-methoxyethyl)(methyl)carbamoyl)phenyl)-8-(1-isopropyl-1H-indazol-5-yl)-3-methyl-2-oxo-3,6-dihydroimidazo[4,5-d]pyrrolo[2,3-b]pyridin-1(2H)-yl)cyclopentyl)carbamate] | ≤ 10 nM | ≤ 300 nM | – | – |
| COC(=O)N[C@@H]1CC[C@@H](n2c(=O)n(C)c3cnc4[nH]c(-c5ccc(C(=O)NC6CC6)c(F)c5)c(-c5ccc6c(cnn6C(C)C)c5)c4c32)C1 [Example 8, Methyl ((1R,3R)-3-(7-(4-(cyclopropylcarbamoyl)-3-fluorophenyl)-8-(1-isopropyl-1H-indazol-5-yl)-3-methyl-2-oxo-3,6-dihydroimidazo[4,5-d]pyrrolo[2,3-b]pyridin-1(2H)-yl)cyclopentyl)carbamate] | ≤ 10 nM | 300 to 800 nM | – | – |
| CNC(=O)c1ccc(-c2[nH]c3ncc4c(c3c2-c2ccc3c(cnn3C(C)C)c2)n([C@@H]2CC[C@@H](NC(=O)OC)C2)c(=O)n4C)cc1F [Example 12, Methyl ((1R,3R)-3-(7-(3-fluoro-4-(methylcarbamoyl)phenyl)-8-(1-isopropyl-1H-indazol-5-yl)-3-methyl-2-oxo-3,6-dihydroimidazo[4,5-d]pyrrolo[2,3-b]pyridin-1(2H)-yl)cyclopentyl)carbamate] | ≤ 10 nM | ≤ 300 nM | – | – |
| [2H]C([2H])([2H])N(Cc1ccc(-c2[nH]c3ncc4c(c3c2-c2ccc(OCCOC)cc2)n([C@@H]2CC[C@@H](NC(=O)OC)C2)c(=O)n4C([2H])([2H])[2H])cc1)C([2H])([2H])[2H] [Example 27, Methyl ((1R,3R)-3-(7-(4-((bis(methyl-d3)amino)methyl)phenyl)-8-(4-(2-methoxyethoxy)phenyl)-3-(methyl-d3)-2-oxo-3,6-dihydroimidazo[4,5-d]pyrrolo[2,3-b]pyridin-1(2H)-yl)cyclopentyl)carbamate] | ≤ 10 nM | ≤ 300 nM | > 500 µg/mL | – |
| COC(=O)N[C@@H]1CC[C@@H](n2c(=O)n(C)c3cnc4[nH]c(-c5ccc(C(=O)NC6CC6(F)F)c(F)c5)c(-c5ccc6c(cnn6C(C)C)c5)c4c32)C1 (stereo partly drawn) [Example 9, Methyl ((1R,3R)-3-(7-(4-((2,2-difluorocyclopropyl)carbamoyl)-3-fluorophenyl)-8-(1-isopropyl-1H-indazol-5-yl)-3-methyl-2-oxo-3,6-dihydroimidazo[4,5-d]pyrrolo[2,3-b]pyridin-1(2H)-yl)cyclopentyl)carbamate] | ≤ 10 nM | 300 to 800 nM | – | – |
| COC(=O)N[C@@H]1CC[C@@H](n2c(=O)n(C)c3cnc4[nH]c(-c5ccc(C(=O)NC6CC6C(F)(F)F)c(F)c5)c(-c5ccc6c(cnn6C(C)C)c5)c4c32)C1 (stereo partly drawn) [Example 10, Methyl ((1R,3R)-3-(7-(3-fluoro-4-((2-(trifluoromethyl)cyclopropyl)carbamoyl)phenyl)-8-(1-isopropyl-1H-indazol-5-yl)-3-methyl-2-oxo-3,6-dihydroimidazo[4,5-d]pyrrolo[2,3-b]pyridin-1(2H)-yl)cyclopentyl)carbamate] | ≤ 10 nM | 300 to 800 nM | – | – |
| CNC(=O)c1ccc(-c2[nH]c3ncc4c(c3c2-c2ccc3c(cnn3C(C)C)c2)n([C@@H]2CC[C@@H](NC(=O)OC)C2)c(=O)n4C)cc1 [Example 21, Methyl ((1R,3R)-3-(8-(1-isopropyl-1H-indazol-5-yl)-3-methyl-7-(4-(methylcarbamoyl)phenyl)-2-oxo-3,6-dihydroimidazo[4,5-d]pyrrolo[2,3-b]pyridin-1(2H)-yl)cyclopentyl)carbamate] | ≤ 10 nM | 300 to 800 nM | – | – |
| COCCNC(=O)c1ccc(-c2[nH]c3ncc4c(c3c2-c2ccc3c(cnn3C(C)C)c2)n([C@@H]2CC[C@@H](NC(=O)OC)C2)c(=O)n4C)cc1F [Example 14, Methyl ((1R,3R)-3-(7-(3-fluoro-4-((2-methoxyethyl)carbamoyl)phenyl)-8-(1-isopropyl-1H-indazol-5-yl)-3-methyl-2-oxo-3,6-dihydroimidazo[4,5-d]pyrrolo[2,3-b]pyridin-1(2H)-yl)cyclopentyl)carbamate] | ≤ 10 nM | ≤ 300 nM | – | – |
| COc1nn(C)cc1-c1[nH]c2ncc3c(c2c1-c1ccc2c(cnn2C)c1)n([C@H]1CC[C@@H](CC#N)CC1)c(=O)n3C [E, reference compound] | ≤ 10 nM | – | ≤ 50 µg/mL | – |
| CCNC(=O)c1ccc(-c2[nH]c3ncc4c(c3c2-c2ccc3c(cnn3C(C)C)c2)n([C@@H]2CC[C@@H](NC(=O)OC)C2)c(=O)n4C)cc1 [Example 23, Methyl ((1R,3R)-3-(7-(4-(ethylcarbamoyl)phenyl)-8-(1-isopropyl-1H-indazol-5-yl)-3-methyl-2-oxo-3,6-dihydroimidazo[4,5-d]pyrrolo[2,3-b]pyridin-1(2H)-yl)cyclopentyl)carbamate] | ≤ 10 nM | ≤ 300 nM | – | – |
| [2H]C([2H])([2H])n1ncc2cc(-c3c(-c4cn(C)nc4OC)[nH]c4ncc5c(c34)n(C3CCOCC3)c(=O)n5C)ccc21 [Comparative Example B, reference compound] | ≤ 10 nM | – | ≤ 50 µg/mL | – |
| CCNC(=O)c1ccc(-c2[nH]c3ncc4c(c3c2-c2ccc3c(cnn3C(C)C)c2)n([C@@H]2CC[C@@H](NC(=O)OC)C2)c(=O)n4C)cc1F [Example 6, Methyl ((1R,3R)-3-(7-(4-(ethylcarbamoyl)-3-fluorophenyl)-8-(1-isopropyl-1H-indazol-5-yl)-3-methyl-2-oxo-3,6-dihydroimidazo[4,5-d]pyrrolo[2,3-b]pyridin-1(2H)-yl)cyclopentyl)carbamate] | ≤ 10 nM | ≤ 300 nM | – | – |
| COC(=O)N[C@@H]1CC[C@@H](n2c(=O)n(C)c3cnc4[nH]c(-c5ccc(C(=O)N6CCOCC6)c(F)c5)c(-c5ccc6c(cnn6C(C)C)c5)c4c32)C1 [Example 16, Methyl ((1R,3R)-3-(7-(3-fluoro-4-(morpholine-4-carbonyl)phenyl)-8-(1-isopropyl-1H-indazol-5-yl)-3-methyl-2-oxo-3,6-dihydroimidazo[4,5-d]pyrrolo[2,3-b]pyridin-1(2H)-yl)cyclopentyl)carbamate] | ≤ 10 nM | ≤ 300 nM | – | – |
| COC(=O)N[C@@H]1CC[C@@H](n2c(=O)n(C)c3cnc4[nH]c(-c5ccc(C(=O)NCC(F)(F)F)c(F)c5)c(-c5ccc6c(cnn6C(C)C)c5)c4c32)C1 [Example 11, Methyl ((1R,3R)-3-(7-(3-fluoro-4-((2,2,2-trifluoroethyl)carbamoyl)phenyl)-8-(1-isopropyl-1H-indazol-5-yl)-3-methyl-2-oxo-3,6-dihydroimidazo[4,5-d]pyrrolo[2,3-b]pyridin-1(2H)-yl)cyclopentyl)carbamate] | ≤ 10 nM | ≤ 300 nM | – | – |
| [2H]C([2H])([2H])n1c(=O)n([C@@H]2CC[C@@H](NC(=O)OC)C2)c2c3c(-c4ccc5c(c4)COC5(C)C)c(-c4ccc(C(=O)N(C)C)cc4)[nH]c3ncc21 [Example 30, methyl ((1R,3R)-3-(8-(1,1-dimethyl-1,3-dihydroisobenzofuran-5-yl)-7-(4-(dimethylcarbamoyl)phenyl)-3-(methyl-d3)-2-oxo-3,6-dihydroimidazo[4,5-d]pyrrolo[2,3-b]pyridin-1(2H)-yl)cyclopentyl)carbamate] | ≤ 10 nM | ≤ 300 nM | – | – |
| COc1nn(C)cc1-c1[nH]c2ncc3c(c2c1-c1ccc2c(cnn2C)c1)n(C1CCOCC1)c(=O)n3C [Comparative Example A, reference compound] | ≤ 10 nM | – | ≤ 50 µg/mL | < 20 µg/mL |
